The values below come from patent publication US9145415B2, “Nitrogen-containing heterocyclic compound or salt thereof” (FUJIFILM Corporation, priority 2012, dated 2015).

For test [1], the target named is T1, human FLT3 protein (FLT3 (WT)) (Homo sapiens, UniProt P36888).
T1 construct: human FLT3 protein (intracellular region, 564 to 993 aa); GST; purchased Carna Biosciences; host or cells: baculovirus expression system
T1 sequence (P36888 564-993): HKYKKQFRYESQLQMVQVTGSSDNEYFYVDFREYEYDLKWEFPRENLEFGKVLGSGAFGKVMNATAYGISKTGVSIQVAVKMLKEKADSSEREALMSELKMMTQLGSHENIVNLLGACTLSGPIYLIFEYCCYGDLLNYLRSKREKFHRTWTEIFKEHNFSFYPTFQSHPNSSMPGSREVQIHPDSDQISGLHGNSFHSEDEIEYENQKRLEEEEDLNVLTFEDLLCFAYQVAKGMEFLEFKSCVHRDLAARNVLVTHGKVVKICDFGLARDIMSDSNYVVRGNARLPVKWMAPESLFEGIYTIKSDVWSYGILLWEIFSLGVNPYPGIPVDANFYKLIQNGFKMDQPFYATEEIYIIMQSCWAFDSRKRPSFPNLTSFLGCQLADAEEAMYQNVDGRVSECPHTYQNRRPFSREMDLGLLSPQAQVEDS
Kind of test: FLT3 inhibition test (FLT3 enzyme inhibition, time-resolved fluorescence of substrate peptide phosphorylation). The class given is biochemical. The conditions noted are these: read-out: FLT3 (WT) enzyme inhibition activity. An outline of the steps: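 Substrate peptide phosphorylation detected by time-resolved fluorescence after a 30 min kinase reaction at 25° C with 50 μM ATP (final). Beforehand, compound and FLT3 (WT, 1.2 μg) stood 15 min at 25° C in HEPES buffer pH 7.5 containing MgCl2, NaCl, BSA and DTT.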

Test [2] concerns MV4-11 cells. Kind of test: Leukemia cell proliferation inhibition test (ATPlite), MV4-11. The class given is cell-based. The conditions noted are these: Homo sapiens, read-out: MV4-11 cell proliferation inhibition effect. An outline of the steps:
(§1)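 Molm-13 or MV4-11 cells in RPMI with 10% FBS and pen/strep, seeded at 10,000 cells per well, were exposed to serially diluted compound for 72 hours at 37° C, 5% CO2. Total cellular ATP was read by luciferase luminescence. GI50 came from sigmoid fits against the 0.1% DMSO control, in duplicate.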
Background: In ATP-based viability assays light output follows the ATP content of the culture.

In test [3] the test system is Molm-13 cells. Kind of test: Leukemia cell proliferation inhibition test (ATPlite), Molm-13. The class given is cell-based. Conditions: Homo sapiens, read-out: MOLM13 cell proliferation inhibition effect. An outline of the steps:
as §1

Setting [4] is: GST-fused human FLT3 (564 to 993 aa), ATP 50 μM.
[5] abbreviates: MV4-11, 72 h, MV4-11, 72 hours culture, ATPlite, GI50 per method.
Setting [6] is: MOLM-13, 72 h, Molm-13, 72 hours culture, ATPlite, GI50 per method.

Read-outs that look alike come from different tables or passages of the source. Where only a bound is given, the exact number is not on record here.

On to `CCCNc1nc(Nc2ccc(-n3ccnn3)cc2)ncc1C#CCCCNC(=O)[C@H](C)N(C)C(=O)/C=C/CN(C)C` [Compound 22-17], for which the IC50 was under 10 nM in test [1] (FLT3 (WT)); under 10 nM in test [2] (MV4-11, MV4-11 cell); under 10 nM in test [3] (MOLM-13, MOLM13 cell).
For `CCCNc1nc(Nc2cccc(F)c2)ncc1C#CCCCNC(=O)[C@H](C(C)CC)N(C)C(=O)/C=C/CN(C)C` (stereo partly drawn) [Compound 7-12], the IC50 in test [1] (setting [4]) was in the range of 10 to 100 nM; in test [2] (setting [5]) it was 100 to 1000 nM; in test [3] (setting [6]) it was 100 to 1000 nM.
For the compound `CCCNc1nc(Nc2cccc(C#N)c2)ncc1C#CCCCNC(=O)[C@H](C)N(C)C(=O)/C=C/CN(C)C` [Compound 7-3, (S,E)-N-(1-((5-(2-((3-Cyanophenyl)amino)-4-(propylamino)pyrimidin-5-yl)-4-pentyn-1-yl)amino)-1-oxopropan-2-yl)-4-(dimethylamino)-N-methyl-2-butenamide], the IC50 in test [1] (setting [4]), in test [2] (setting [5]) and in test [3] (setting [6]) was under 10 nM throughout.
As to `C=C(C)C(=O)N(C)[C@@H](C)C(=O)Nc1cccc(NC(=O)c2cnc(Nc3ccc(C(N)=O)cc3)nc2NCCC)c1` [Compound 3-10], the figures for the IC50 in test [1] (setting [4]), in test [2] (setting [5]) and in test [3] (setting [6]) were under 10 nM, 100 to 1000 nM and 100 to 1000 nM, respectively.
On to `CCCNc1nc(Nc2ccc(C(=O)N(C)C)cc2)ncc1C#CCCCNC(=O)CN(C)C(=O)/C=C/CN(C)C` [Compound 7-16], for which the IC50 in test [1] (setting [4]) was 10 to 100 nM; in test [2] (setting [5]), under 10 nM; in test [3] (setting [6]) it was under 10 nM.
In the case of `CCCNc1nc(Nc2cccc(F)c2)ncc1C#CCCC(=O)NCCN(C)C(=O)/C=C/CN(C)C` [Compound 8-21], the results for the IC50 in test [1] (setting [4]), in test [2] (setting [5]) and in test [3] (setting [6]) were 10 to 100 nM, 100 to 1000 nM and 100 to 1000 nM, respectively.
With `CC(C)c1ccc(Nc2nc(Nc3cccc(F)c3)ncc2C#CCCCNC(=O)[C@H](C)N(C)C(=O)/C=C/CN(C)C)cc1` [Compound 10-12], the IC50 in test [1] (setting [4]) was under 10 nM; in test [2] (setting [5]), under 10 nM; in test [3] (setting [6]), 10 to 100 nM.
Consider `CCCNc1nc(Nc2ccc(C#N)cc2)ncc1C#CCCCNC(=O)[C@@H]1CCCN1C(=O)/C=C/CN(C)C` [Compound 7-33, (S,E)-N-(5-(2-((4-Cyanophenyl)amino)-4-(propylamino)pyrimidin-5-yl)-4-pentyn-1-yl)-1-(4-(dimethylamino)-2-butenoyl)pyrrolidine-2-carboxamide], for which the IC50 in test [1] (setting [4]), in test [2] (setting [5]) and in test [3] (setting [6]) was under 10 nM throughout.
As to `CCCNc1nc(NCCc2ccncc2)ncc1C(=O)Nc1cccc(NC(=O)C(C)(C)NC(=O)/C=C/CN(C)C)c1` [Compound 2-11], the figures for the IC50 in test [1] (setting [4]), in test [2] (setting [5]) and in test [3] (setting [6]) were under 10 nM, 10 to 100 nM and 10 to 100 nM, respectively.
`CCCNc1nc(Nc2ccc(C#N)cc2)ncc1C(=O)Nc1cccc(NC(=O)[C@H](C)N(C)C(=O)/C=C/CN(C)C)c1` [Compound 6-1, (S,E)-2-((4-cyanophenyl)amino)-N-(3-(2-(4-(dimethylamino)-N-methyl-2-butenamido)propanamido)phenyl)-4-(propylamino)pyrimidine-5-carboxamide]: the figures for the IC50 in test [1] (setting [4]), in test [2] (setting [5]) and in test [3] (setting [6]) were under 10 nM, under 10 nM and 10 to 100 nM, respectively.
Take `C[C@@H](C(=O)NCCCC#Cc1cnc(Nc2cccc(F)c2)nc1NCCCF)N(C)C(=O)/C=C/CN(C)C` [Compound 7-31]: the IC50 in test [1] (setting [4]), in test [2] (setting [5]) and in test [3] (setting [6]) was under 10 nM throughout.
On to `C[C@@H](C(=O)N[C@H]1C[C@@H](C#Cc2cnc(Nc3cccc(F)c3)nc2NCCCF)C1)N(C)C(=O)/C=C/CN(C)C` [Compound 15-13, (E)-4-(Dimethylamino)-N—((S)-1-(((1S,3R)-3-((2-((3-fluorophenyl)amino)-4-((3-fluoropropyl)amino)pyrimidin-5-yl)ethynyl)cyclobutyl)amino)-1-oxopropan-2-yl)-N-methyl-2-butenamide], for which the IC50 in test [1] (setting [4]), in test [2] (setting [5]) and in test [3] (setting [6]) was under 10 nM each time.
Consider `C=CC(=O)NCCCNC(=O)c1cnc(NCCc2ccncc2)nc1NCCC` [Compound 2-21], for which the IC50 in test [1] (setting [4]), in test [2] (setting [5]) and in test [3] (setting [6]) was 10 to 100 nM throughout.
Take `CCCNc1nc(Nc2ccc(Cn3cncn3)cc2)ncc1C#CCCCNC(=O)CN(C)C(=O)/C=C/CN(C)C` [Compound 12-11]: the IC50 in test [1] (setting [4]), in test [2] (setting [5]) and in test [3] (setting [6]) was 10 to 100 nM in each case.
Take `CNc1nc(Nc2ccc(C#N)cc2)ncc1C#C[C@@H]1CCC[C@H](NC(=O)[C@H](C)N(C)C(=O)/C=C/CN(C)C)C1` [Compound 15-5, (E)-N—((S)-1-(((1S,3R)-3-((2-((4-Cyanophenyl)amino)-4-(methylamino)pyrimidin-5-yl)ethynyl)cyclohexyl)amino)-1-oxopropan-2-yl)-4-(dimethylamino)-N-methyl-2-butenamide]: the IC50 in test [1] (setting [4]), in test [2] (setting [5]) and in test [3] (setting [6]) was under 10 nM each time.
Turning to `CCCNc1nc(Nc2cccc(F)c2)ncc1-c1nc2ccc(NC(=O)[C@H](C)N(C)C(=O)/C=C/CN(C)C)cc2o1` [Compound 6-23, (S,E)-4-(dimethylamino)-N-(1-((2-(2-((3-fluorophenyl)amino)-4-(propylamino)pyrimidin-5-yl)benzo[d]oxazol-6-yl)amino)-1-oxopropan-2-yl)-N-methyl-2-butenamide], the IC50 in test [1] (setting [4]) lay within 10 to 100 nM; in test [2] (setting [5]) it was 100 to 1000 nM; in test [3] (setting [6]), 100 to 1000 nM.
Turning to `CCCNc1nc(Nc2ccc3cnn(CCOC)c3c2)ncc1C#CCCCNC(=O)[C@H](C)N(C)C(=O)/C=C/CN(C)C` [Compound 22-11], the IC50 in test [1] (FLT3 (WT)) is under 10 nM; in test [2] (MV4-11, MV4-11 cell) it was under 10 nM; in test [3] (MOLM-13, MOLM13 cell) it was under 10 nM.
As for `CCCNc1nc(Nc2ccc(C#N)cc2)ncc1C#CCCC(=O)NCCN(C)C(=O)/C=C/CN(C)C` [Compound 8-22], the values for the IC50 in test [1] (setting [4]), in test [2] (setting [5]) and in test [3] (setting [6]) were under 10 nM, 10 to 100 nM and 10 to 100 nM, respectively.
Take `C=CC(=O)N[C@H](C)C(=O)Nc1cccc(NC(=O)c2cnc(NCCc3ccncc3)nc2NCCC)c1` [Compound 2-3]: the IC50 in test [1] (setting [4]) was under 10 nM; in test [2] (setting [5]), 10 to 100 nM; in test [3] (setting [6]) it was 10 to 100 nM.
For the compound `CCCNc1nc(Nc2ccc(C#N)cc2)ncc1C#CCCCNC(=O)[C@@H]1C[C@H](F)CN1C(=O)/C=C/CN(C)C` [Compound 7-50], the IC50 in test [1] (setting [4]), in test [2] (setting [5]) and in test [3] (setting [6]) was under 10 nM in each case.
As to `CCCNc1nc(Nc2cnc3c(c2)c(C)nn3CCOC)ncc1C#CCCCNC(=O)[C@H](C)N(C)C(=O)/C=C/CN(C)C` [Compound 22-41], the IC50 is under 10 nM in test [1] (FLT3 (WT)); under 10 nM in test [2] (MV4-11, MV4-11 cell); under 10 nM in test [3] (MOLM-13, MOLM13 cell).
In the case of `COCCCNc1nc(Nc2cccc(F)c2)ncc1C#C[C@H]1C[C@@H](NC(=O)[C@H](C)N(C)C(=O)/C=C/CN(C)C)C1` [Compound 15-15, (E)-4-(Dimethylamino)-N—((S)-1-(((1S,3R)-3-((2-((3-fluorophenyl)amino)-4-((3-methoxypropyl)amino)pyrimidin-5-yl)ethynyl)cyclobutyl)amino)-1-oxopropan-2-yl)-N-methyl-2-butenamide], the IC50 in test [1] (setting [4]), in test [2] (setting [5]) and in test [3] (setting [6]) was under 10 nM in each case.
Consider `C[C@@H](C(=O)NCCCC#Cc1cnc(Nc2ccc(C#N)cc2)nc1N1CCC(F)(F)CC1)N(C)C(=O)/C=C/CN(C)C` [Compound 10-43], for which the IC50 is under 10 nM in test [1] (setting [4]), 10 to 100 nM in test [2] (setting [5]) and 10 to 100 nM in test [3] (setting [6]).
With `C[C@@H](C(=O)N[C@H]1CCC[C@@H](C#Cc2cnc(Nc3cccc(C#N)c3)nc2NC2CC2)C1)N(C)C(=O)/C=C/CN(C)C` [Compound 21-47], the IC50 in test [1] (FLT3 (WT)) is under 10 nM; in test [2] (MV4-11, MV4-11 cell), under 10 nM; in test [3] (MOLM-13, MOLM13 cell), under 10 nM.
`CNc1nc(Nc2ccc3cn[nH]c3c2)ncc1C#CCCCNC(=O)[C@H](C)N(C)C(=O)/C=C/CN(C)C` [Compound 10-63]: the IC50 in test [1] (setting [4]), in test [2] (setting [5]) and in test [3] (setting [6]) was under 10 nM each time.
As to `CCCNc1nc(Nc2ccc3nnccc3c2)ncc1C(=O)NCCCNC(=O)[C@H](C)N(C)C(=O)/C=C/CN(C)C` [Compound 6-10B], the IC50 in test [1] (setting [4]), in test [2] (setting [5]) and in test [3] (setting [6]) was under 10 nM throughout.
Consider `CCCNc1nc(Nc2ccc(C(N)=O)cc2)ncc1-c1ccc(CCNC(=O)CNC(=O)/C=C/CN(C)C)cc1` [Compound 16-3], for which the IC50 in test [1] (setting [4]) is under 10 nM; in test [2] (setting [5]) it was 100 to 1000 nM; in test [3] (setting [6]), 100 to 1000 nM.
